# Measured values published in patent US8697710B2, “Optionally substituted 3-amino-4-(thioxo or imino)-4,5-dihydro-2H-pyrazolo [3,4-d]pyrimidin-6(7H)-ones” (Intra-Cellular Therapies, Inc., priority 2008, dated 2014).
# Target: Phosphodiesterase 1B (PDE1B)
# Assay: Measurement of PDE1B inhibition in vitro using IMAP phosphodiesterase assay kit
# Type: biochemical, bovine
# Settings: PDE1 inhibitory activity, IMAP fluorescence polarization, cGMP-fluorescein substrate
# Source text: Measurement of PDE1B Inhibition in Vitro Using IMAP Phosphodiesterase Assay Kit
# Phosphodiesterase 1B (PDE1B) is a calcium/calmodulin dependent phosphodiesterase enzyme that converts cyclic guanosine monophosphate (cGMP) to 5′-guanosine monophosphate (5′-GMP). PDE can also convert a modified cGMP substrate, such as the fluorescent molecule cGMP-fluorescein, to the corresponding GMP-fluorescein. The generation of GMP-fluorescein from cGMP-fluorescein can be quantitated, using, for example, the IMAP (Molecular Devices, Sunnyvale, Calif.) immobilized-metal affinity particle reagent.
# Briefly, the IMAP reagent binds with high affinity to the free 5′-phosphate that is found in GMP-fluorescein and not in cGMP-fluorescein. […] Small fluorophores that are bound up in a large, slowly tumbling, complex can be distinguished from unbound fluorophores, because the photons emitted as they fluoresce retain the same polarity as the photons used to excite the fluorescence.
# In the phosphodiesterase assay, cGMP-fluorescein, which cannot be bound to IMAP, and therefore retains little fluorescence polarization, is converted to GMP-fluorescein, which, when bound to IMAP, yields a large increase in fluorescence polarization (Δmp). Inhibition of phosphodiesterase, therefore, is detected as a decrease in Δmp. […]
# A decrease in GMP concentration, measured as decreased Δmp, is indicative of inhibition of PDE activity.
structure (smiles),measurement,value
"C/N=c1/c2c(Nc3ccccc3)n(Cc3ccc(-c4ccccn4)cc3)nc2n(CC(C)C)c(=O)n1C [Example 2, 7-Isobutyl-5-methyl-4-(methylimino)-3-(phenylamino)-2-(4-(pyridin-2-yl)benzyl)-4,5-dihydro-2H-pyrazolo[3,4-d]pyrimidin-6(7H)-one]",IC50,< 200 nM
